The text below walks through data of US8227510B2, “Combine use of pterostilbene and quercetin for the production of cancer treatment medicaments” (Universitat de Valencia, priority 2004, dated 2012).

In general, half-life refers to the time in which the quantity being followed falls by half. A word on the inhibition: it is the relative decrease from the control value, in per cent.

One data set concerns B16M-F10 cells. The data set is described as follows: Inhibition in vitro of the growth of B16M-F10 cells. It counts as cell-based. As to the method:
B16M-F10 cells were cultured in Dulbecco's modified Eagle's medium (DMEM; Gibco Labs., Grand Island, N.Y., USA), pH 7.4, supplemented with 10% fetal serum (Gibco), HEPES 10 mM, NaHCO3 40 mM, 100 U/ml of penicillin and 100 μg/ml of streptomycin (20).
The B16M-F10 melanoma, highly aggressive, is a model that is widely used for investigating metastatic spread and tissue invasion (21), and for this reason was chosen for our studies. In the first group of experiments, we studied the effect in vitro of t-PTER+QUER on the growth of B16M-F10 cells. To reproduce the conditions in vivo after i.v. administration, we incubated B16M-F10 cells in the presence of t-PTER (40 μM) and/or QUER (20 μM) for a limited period (60 minutes) (this represents a value that approximates to the average of the concentrations of PTER and QUER measured in the plasma during the first hour after i.v. administration of 20 mg/kg of each polyphenol (FIG. 2). For comparison, we also used t-RESV (12 μM; selection of this concentration was based on a similar criterion, see the data cited in ref. 14). The polyphenols were added to the incubation medium every 24 hours and, as mentioned, they were only present for 60 minutes.
Also for comparison, we incubated B16M-F10 cells in the presence of t-PTER+QUER at concentrations representing an approximate average value of the total level of each polyphenol measured in the plasma in the first hour after oral administration (11 μM of PTER and 1 μM of QUER) (see Table 1). Both polyphenols, as free forms, were constantly present in the incubation medium.
FIG. 2. Inhibition in vitro of the growth of B16M-F10 cells by brief exposure to resveratrol (RESV), pterostilbene (PTER) and/or quercetin (QUER). All the points are mean values±SD corresponding to 5-6 independent experiments. *P<0.05, **P<0.01 compared with the control values.

Another data set in a line: in vivo. On the set-up: species or system mice. The settings on record: mouse. The source says: The mice (C57BL/6J, male, 6-8 weeks) were from Charles River Spain (Barcelona). The procedures and animal care were based on institutional standards and complied with national and international laws and policies (Directive 86/609, OJ L 358. 1 of the Council of the European Community, of 12 Dec. 1987) and the “Guide for the Care and Use of Laboratory Animals” of the National Institutes of Health (NIH, USA) (NIH Publication No. 85-23, 1985). All the animals were fed according to concentrated laboratory diets (Letica, Barcelona, Spain) allowing them free access to food and submitting them to a cycle of 12 hours of light/12 hours of darkness with ambient temperature of 22° C. The experiments were begun at 10.00 a.m. to minimize the effects of diurnal variations.
For the pharmacokinetic studies and for the daily treatment, the mice were administered i.v. (via the jugular vein, where a permanent catheter had previously been fixed by surgical methods; i.v. administration was carried out slowly for 1 minute), and orally (via stomach tube), 20 mg/kg of t-PTER (dissolved in ethanol 0.5 ml/kg of animal weight) or QUER (dissolved in dimethylsulfoxide:saline, 1:0.5 0.15 ml/kg of weight). In general, the compositions based on a combination of PTER and QUER can contain, as excipients, those stated previously or any others that are pharmaceutically acceptable. The presentation of said compositions can be, non-limitatively, in the form of solids such as tablets, capsules, pellets, pills, etc. and liquid presentations such as drops, syrups, injectables, etc. Moreover, the active principles (PTER and QUER) of the composition can be in their uncombined forms or in the form of pharmaceutically acceptable salts, including esters. The t-PTER was synthesized in our laboratory following standardized reactions of Wittig and Heck (www.orgsyn.org), whereas the QUER was obtained from Sigma Chemical Co. (San Luis, Mo., USA). The ^3H-t-PTER (2.2 Ci/mmol), labeled in the ortho and para positions of the benzene rings, was prepared in our laboratory according to a method similar to that used for the deuteration of phenols (18). ^14C-QUER (50 mCi/mmol), labeled in position 4 of the carbon ring, was obtained from the NCI Radiochemical Carcinogen Repository of Chemsyn Laboratories (Kansas City, Mo., USA). The radioactivity was measured using a Varisette 2700 TR analyzer from Packard. Blood was collected by means of the catheter in 1-ml syringes that contained heparin sodium (0.05 ml of a 5% solution in […]). The plasma and the erythrocytes were separated as described previously (19).
LC-MS/MS was carried out using a Quattro Micro triple quadrupole mass spectrometer (Micromass, Manchester, UK) equipped with an LC-10Advp pump, an SLC-10Avp control system and an SIL-10Advp autoinjector from Shimadzu. The samples were analyzed by reverse-phase high-performance liquid chromatography using a Prodigy ODS column (100×2 mm) from Phenomenex (Torrance, Calif., USA), with a particle size of 3 μm. In all cases, 40 μl was injected into the column. Column temperature was maintained at 25° C. The following gradient system was used, pumped through the column at 0.2 ml/minute (min/% A/% B/% C) (A, methanol; B, 10% acetonitrile and 90% ammonium formate 10 mM pH 3.75; C, ammonium formate 10 mM pH 3.75): 0/5/5/90, 10/5/5/90, 20/5/90/5, 30/100/0/0, 40/5/5/90. The negative ion tandem mass spectra obtained by electrospray were recorded with the electrospray capillary fixed at […] and at a temperature of the source block of 120° C. Nitrogen was used as nebulizer gas and drying gas, with flows of 300 and 30 l/h, respectively. Argon at 1.5×10^−3 mbar was used as the collision gas for collision-induced dissociation. A test was carried out based on LC-MS/MS with tracking of multiple reactions using the transitions m/z 255-240 for PTER and […] for QUER, which in both cases represent favorable fragmentation routes for these deprotonated molecules. […]

[1] abbreviates: t-PTER 40 μM, QUER 20 μM, t-RESV 12 μM, added every 24 hours, present for 60 minutes.

As for `COc1cc(/C=C/c2ccc(O)cc2)cc(OC)c1` [PTER, pterostilbene], the “inhibition of the growth of B16M-F10” value in the data set on B16M-F10 cells (setting [1]) stood at 40%. Besides, in “in vivo” (male, C57BL/6J), the “PTER measured in plasma or blood in the trans form” value is recorded as “At least 99%”. Also, in “in vivo” (male, C57BL/6J, iv, 20 mg/kg), the half-life was ~77.9 min and the “time in which plasma concentration decreases to ~1 μM” value was determined as 480 min. The “levels in whole blood compared with plasma” value in “in vivo” is listed as “not significantly different”.

With `O=c1c(O)c(-c2ccc(O)c(O)c2)oc2cc(O)cc(O)c12` [QUER, quercetin], the “effect on growth of B16M-F10 cells at concentrations found after oral administration” value in the data set with B16M-F10 cells (t-PTER 11 μM and/or QUER 1 μM, constantly present in the medium) is reported as “did not have a significant effect”. Also, the inhibition at 20 µM in the data set with B16M-F10 cells (setting [1]) is 19%. Besides, in “in vivo” (male, C57BL/6J, iv, 20 mg/kg), the half-life is ~20.1 min and the “time in which plasma concentration decreases to ~1 μM” value was determined as 120 min. Also, the “levels in whole blood compared with plasma” value in “in vivo” is “not significantly different”.

As to `Oc1ccc(C=Cc2cc(O)cc(O)c2)cc1` [RESV, resveratrol, reference compound], the “inhibition of the growth of B16M-F10” value with B16M-F10 cells (setting [1]) is on record as “did not have a significant effect”. The “effect of t-RESV on the percentage inhibition of growth promoted by t-PTER+QUER” value with B16M-F10 cells (t-RESV 12 μM added to t-PTER 40 μM + QUER 20 μM) is “did not significantly affect”. Moreover, the half-life in “in vivo” is ~10.2 min.
